Source: patent publication US12546785B2, “IL-17F and IL-17A-specific capture agents, compositions, and methods of using and making” (Regeneron Pharmaceuticals, Inc., priority 2017, dated 2026)
Bridge positions count the residues as written; N and C are the ends. Square brackets hold non-standard residues; d marks the D form. Triazole bridges read from a SMILES are 1,4-linked. Peptide text beside a SMILES is read from it. * marks the point of attachment. ξ: configuration not given here. Biotinyl(3aR,4R,6aS) = O=C1N[C@@H]2[C@@H](CS[C@@H]2CCCCC(=O)*)N1; X1 = O=C(CCCCC1SC[C@H]2NC(=O)N[C@@H]12)NCCCOCCOCCOCCCN*; Lys(N3) = [N-]=[N+]=NCCCC[C@H](N)C(=O)O; Thr(3ξ) = CC(O)[C@H](N)C(=O)O; AEEEA = NCCOCCOCCOCC(=O)O; Pra = C#CC[C@H](N)C(=O)O

Columns and labels:
IL-17F protein [1] = molecular target: T1, IL-17F protein (Homo sapiens, UniProt Q96PD4); test: Fluorescence polarization titration in solution; type: binding
T1 construct: His tag
T1 sequence (Q96PD4 31-163): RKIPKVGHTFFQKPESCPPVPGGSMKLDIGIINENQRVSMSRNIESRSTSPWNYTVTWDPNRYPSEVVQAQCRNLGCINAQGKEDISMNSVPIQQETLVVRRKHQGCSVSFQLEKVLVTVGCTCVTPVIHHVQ
Method: The bonding affinities of the macrocycles were tested in solution by titrating the recombinant human IL-17F protein against fluorescein 5-isothiocyanate (5-FITC)-tagged macrocycles by fluorescence polarization. […] The structure of LA3 (SEQ ID NO:44), the lead macrocycle developed against IL-17A Epitope3, is shown below (X=PEG3-biotin). MALDI-TOF MS (m/z): calcd. for C62H98N22O13S (M+H) 1391.74; found 1392.36.

IL-17F protein [2] = molecular target: T1, IL-17F protein; test: IL-17F binding in a background of human serum, surface-immobilized ligand; details: for IL-17F binding efficiency in human serum: up to 10% (v/v) serum
From the text: Binding to IL-17F in 25% (v/v) serum is also detectable.
Target binding in biologically complex samples was interrogated by contacting surface-immobilized macrocycles with IL-17F protein in a background of human serum.

[3] = molecular target: T2, His-tagged IL-17F Epitope1 (C48S) (Homo sapiens, UniProt Q96PD4); test: Assay to determine orientation of macrocycle binding to IL-17F Epitope1 (point ELISA with His-tagged epitopes); details: epitope 2 μM, unscrambled
T2 construct: made in house; host or cells: chemical peptide synthesis
Method: (§1) Assay to determine orientation of macrocycle binding to IL-17F Epitope1. A black 96-well NeutrAvidin Coated High Binding Capacity plate (15510, Pierce) was coated with 2 μM macrocyclic peptide ligand in TBS (pH 7.6) for 2 h at room temperature. Biotinylated monoclonal anti-IL17F (TA319597, Origene) was coated at 4 μg/mL in TBS as a control. The plate was aspirated and then washed with TBS (5×) and Wash Buffer (0.05% (v/v) Tween-20 in PBS, 1×). Chemically synthesized His-tagged IL-17F epitopes were prepared at 2 μM in Wash Buffer and incubated in the designated microwells for 90 min at room temperature. Wash Buffer without epitope was added as a control. Microwells were aspirated and subsequently washed with Wash Buffer (10×). To detect the bound IL-17F epitopes, Alkaline Phosphatase (AP)-conjugated Anti-6X His tag® antibody [HIS-1] (ab49746, Abcam) was prepared at 1:10,000 dilution and added to the microwells for 1 h at room temperature. The plate was aspirated and washed with Wash Buffer (11×). AttoPhos® AP Fluorescent Substrate System (S1000, Promega) was employed to develop the microwells. Using an excitation wavelength of 430 nm, fluorescent emission at 535 nm was recorded by Beckman Coulter DTX880 photometer. Data are shown after subtraction of the no-epitope background.
(§2) For this experiment, the IL-17F Epitope1 was re-synthesized with a His6 assay handle and C48S substitution instead of a click handle. Two additional His-tagged IL-17F epitopes were synthesized to contain strategic scrambling of the sequences either N-terminal or C-terminal to C48S (scrambled residues are shown in italics): • 1) His6-PEG3-[…] (SEQ ID NO:39); • 2) His6-PEG3-[…] (scrambled C-terminal to click handle; SEQ ID NO:40); • 3) His6-PEG3-[…] (scrambled N-terminal to click handle; SEQ ID NO:41).
(§3) In anticipation of forming a biligand with LF2 (SEQ ID NO: 28), it was important to gain insight on whether LF1 (SEQ ID NO:9) preferentially binds to the N- or C-terminus of Epitope1. Therefore, two His-tagged IL-17F epitopes were generated, scrambling the sequence either N-terminal or C-terminal to the location of the azide click handle. His6 assay handle and C48S substitution instead of a click handle. The scrambled amino acids are shown in italics. MALDI-TOF MS (m/z): calculated for C116H163N37O31 (M+H) 2571.23; found 2571.57.

[4] = tested on: His-tagged IL-17F Epitope1 (C48S); test: as above
Method: as §1, §2, §3

[5] = molecular target: T3, full-length His-tagged IL-17F protein (Homo sapiens, UniProt Q96PD4); test: Sandwich ELISA: IL-17F captured by ligand immobilized on NeutrAvidin plate; type: binding; details: IL-17F
T3 construct: Full-length His-tagged IL-17F protein (ab167911, Abcam) was serially diluted in Wash Buffer; purchased Abcam ab167911
T3 sequence (Q96PD4 31-163): T1 sequence (Q96PD4 31-163)
Method: Sandwich ELISA. A black 96-well NeutrAvidin Coated High Binding Capacity plate (15510, Pierce) was coated with 2 μM macrocyclic peptide ligand in TBS (25 mM Tris-HCl, 150 mM NaCl, pH 7.6) for 2 h at room temperature. Biotinylated monoclonal anti-IL17F (TA319597, Origene) was coated at 4 μg/mL in TBS as a control. The plate was aspirated and then washed with TBS (5×) and Wash Buffer (0.05% (v/v) Tween-20 in PBS, 1×). Full-length His-tagged IL-17F protein (ab167911, Abcam) was serially diluted in Wash Buffer (from 800 to 0 nM) and incubated in the designated microwells for 90 min at room temperature. Microwells were aspirated and subsequently washed with Wash Buffer (10×). To detect the bound IL-17F protein, Alkaline Phosphatase (AP)-conjugated Anti-6X His tag® antibody [HIS-1] (ab49746, Abcam) was prepared at 1:10,000 dilution and added to the microwells for 1 h at room temperature. The plate was aspirated and washed with Wash Buffer (11×). AttoPhos® AP Fluorescent Substrate System (S1000, Promega) was employed to develop the microwells. Using an excitation wavelength of 430 nm, fluorescent emission at 535 nm was recorded by Beckman Coulter DTX880 photometer. Titration curves were fit using a four-parameter regression curve fitting program (Origin 8.5) to determine EC50 values.
(§4) For these assays, a dilution series of full-length His-tagged IL-17F protein was captured using the macrocyclic peptide ligands immobilized on a NeutrAvidin-coated plate.
Sandwich ELISA. These assays were performed using the same protocol that was used to evaluate the IL-17F Epitope1 targeted ligands.
as §4

trypsin = test: Trypsin protease digestion, analytical HPLC; type: in vitro ADME; details: trypsin 1 h at 37° C., analytical HPLC at 215 nm
Method: Bi-LF Biotin-PEG3-Cy(RSYNKX1X2) (SEQ ID NO:102)-PEG3-Cy(RRATSX1X2) (SEQ ID NO:83) (X1=azidolysine and X2=propargylglycine) was incubated with trypsin to study its susceptibility to protease digestion. Trypsin can cleave peptides and proteins on the C-terminal side of lysine and arginine L-amino acids. For this assay, test compounds were treated with trypsin protease (1 h at 37° C.) or left untreated as a control. In an Eppendorf tube, 4 μL of trypsin solution (10 μg/mL in 1 mM HCl) and 80 pmol of biligand were added to TBS for a final volume of 20 μL. The solution was incubated for 1 h at 37° C., and then further diluted with 80 μL TBS. 50 μL of each sample was injected into a Dionex Ultimate 3000 series analytical HPLC fitted with a Phenomenex Luna-C18 column, and eluted with a gradient of 10%-62% acetonitrile in 0.1% TFA (v/v) in water over 45 min. The samples were monitored at 215 nm.

| bivalent interaction stronger than the other biligands [5] | improvement in affinity relative to the individual PCC macrocyclic ligands [5] | susceptibility to trypsin digestion (trypsin) | binding to IL-17F in human serum (IL-17F protein [2]; 25% (v/v) serum) | binding affinity compared, in words ([5]; sandwich ELISA) | Structure (SMILES) | Kd (IL-17F protein [1]; 5-FITC-tagged macrocycles, in solution) | standard Gibbs free energy change (ΔG°=RTlnKD) of binding to IL-17F (IL-17F protein [1]; 25° C.) | IL-17F binding efficiency in human serum (IL-17F protein [2]) | ELISA signal for His-tagged IL-17F Epitope1 (C48S) [3] | ELISA signal for epitope scrambled C-terminal to click handle ([4]; epitope 2 μM) | binding to epitope scrambled N-terminal to click handle ([4]; epitope 2 μM) | preferred binding region within IL-17F Epitope1 ([4]; scrambled N- or C-terminus peptides) |
| --- | --- | --- | --- | --- | --- | --- | --- | --- | --- | --- | --- | --- |
|  |  |  |  |  | CC(O)[C@@H]1NC(=O)[C@H](C)NC(=O)[C@H](CCCNC(=N)N)NC(=O)[C@H](CCCNC(=N)N)NC(=O)[C@@H](N)Cc2cn(nn2)CCCC[C@@H](C(=O)NCCCOCCOCCOCCCNC(=O)CCCCC2SC[C@H]3NC(=O)N[C@@H]23)NC(=O)[C@H](CO)NC1=O (some centres unmarked) [Cy(RRATSX1X2), Cy(RRATSX1X2)-PEG3-biotin] (H-[Pra]RRA[Thr(3ξ)]S[Lys(N3)]-X1; triazole 1-7) | 50 ± 15 nM | -9.9 kcal/mol | no reduction in IL-17F binding efficiency | positive ELISA signals | positive ELISA signals | Binding was destroyed | preferentially bind to the N-terminal portion of Epitope1 |
| at least 16 times | > 100 fold | trypsin digestion indeed occurred | detectable |  | CC(O)[C@@H]1NC(=O)[C@H](C)NC(=O)[C@H](CCCNC(=N)N)NC(=O)[C@H](CCCNC(=N)N)NC(=O)[C@@H](NC(=O)COCCOCCOCCNC(=O)[C@@H]2CCCCn3cc(nn3)C[C@H](NC(=O)COCCOCCOCCNC(=O)CCCC[C@H]3SC[C@H]4NC(=O)N[C@H]43)C(=O)N[C@@H](CCCNC(=N)N)C(=O)N[C@@H](CO)C(=O)N[C@@H](Cc3ccc(O)cc3)C(=O)N[C@@H](CC(N)=O)C(=O)N[C@@H](CCCCN)C(=O)N2)Cc2cn(nn2)CCCC[C@@H](C(N)=O)NC(=O)[C@H](CO)NC1=O (stereo partly drawn) [Biotin-PEG3-Cy(RSYNKX1X2)-PEG3-Cy(RRATSX1X2)] ({Biotinyl(3aR,4R,6aS)-AEEEA}-[Pra]RSYNK[Lys(N3)][AEEEA][Pra]RRA[Thr(3ξ)]S[Lys(N3)]-NH2; triazole 1-7, 9-15) |  |  | no reduction in binding efficiency |  |  |  |  |
|  |  | resistant to trypsin digestion |  | slightly weaker binding | CC(O)[C@@H]1NC(=O)[C@H](C)NC(=O)[C@@H](CCCNC(=N)N)NC(=O)[C@@H](CCCNC(=N)N)NC(=O)[C@@H](NC(=O)COCCOCCOCCNC(=O)[C@@H]2CCCCn3cc(nn3)C[C@H](NC(=O)COCCOCCOCCNC(=O)CCCC[C@H]3SC[C@H]4NC(=O)N[C@H]43)C(=O)N[C@H](CCCNC(=N)N)C(=O)N[C@@H](CO)C(=O)N[C@@H](Cc3ccc(O)cc3)C(=O)N[C@@H](CC(N)=O)C(=O)N[C@H](CCCCN)C(=O)N2)Cc2cn(nn2)CCCC[C@@H](C(N)=O)NC(=O)[C@H](CO)NC1=O (stereo partly drawn) [Bi-LS, Biotin-PEG3-Cy(rSYNkX1X2)-PEG3-Cy(rrATSX1X2)] ({Biotinyl(3aR,4R,6aS)-AEEEA}-[Pra][dR]SYN[dK][Lys(N3)][AEEEA][Pra][dR][dR]A[Thr(3ξ)]S[Lys(N3)]-NH2; triazole 1-7, 9-15) |  |  |  |  |  |  |  |
